{
  "source": "patent US20200368223A1",
  "about": "“METHODS FOR INHIBITING PHOSPHATE TRANSPORT” (Ardelyx, Inc., priority 2019, published 2020)",
  "key": {"[1]": {"test_system": "uremic rat model of CKD featuring vascular calcification", "experiment": "Rat model of uremia-associated vascular calcification (5/6th nephrectomy, calcitriol, 0.9% P diet)", "assay_type": "in vivo", "excerpt": "Chronic kidney disease (CKD) has multiple pathogenic mechanisms, and advanced CKD is often characterized by disordered mineral metabolism (e.g., hyperphosphatemia, hypercalcemia) and vascular calcification."}, "[2]": {"test_system": "adenine-induced uremic rat model", "experiment": "Adenine-induced uremic rat model", "assay_type": "in vivo", "method": "The effects of Cpd 002(were tested in an adenine-induced uremic rat model. Rats were fed a diet including 0.75% adenine and 1.2% phosphorus during the nephritis induction phase. The basal diet during the treatment phase was normal chow including 0.3% adenine and 0.6% phosphorus for 2 weeks. The rats were pair-fed the first 5 days (groups 1 and 2 to group 3, 4 days apart), and fed ad libitum afterwards. The treatment groups were as follows: vehicle, n=10; Cpd 002, 2 mg/kg/day drug-in-chow, n=10; and Cpd 002, 5 mg/kg/day drug-in-chow, n=12. Weekly measurements were taken for serum markers and kidney function."}, "Sprague Dawley (SD) rats": {"test_system": "Sprague Dawley (SD) rats", "experiment": "Combination treatment with tenapanor and sevelamer in rats (urinary and renal phosphorous and sodium, BLISS model)", "experimental": "A total of 48, approximately 8-week-old male Sprague Dawley (SD) rats (Envigo, Livermore, Calif.), weighing approximately 250 g on arrival, were housed 2-per cage in micro-isolator cages for a 48-hr acclimation period prior to being assigned to study groups. Animals were housed in a temperature (65-75° F.) and humidity (35-55%) controlled facility utilizing a reversed 12-hour light/dark cycle (7 AM-7 PM dark cycle). […] Body weights were recorded at study initiation and daily for the remainder of the study. Animals were maintained in accordance with the Guide for the Care and Use of Laboratory Animals (National Research Council, 2011). The study was conducted under a protocol approved by the Institutional Animal Care and Use Committee.\nRats were randomly assigned to one of eight groups (n=6/group) provided with a diet containing varying amounts of sevelamer (0-3% w/w) and were dosed by oral gavage twice daily with vehicle (0.01% Tween80) or tenapanor (0.15 mg/kg) for 11-consecutive days according to the study assignments shown in the following table.\nRats dosed orally with vehicle and provided diet without sevelamer (Group 1) served as the control group. Treatment arms included groups treated with tenapanor alone (0.15 mg/kg, bid), sevelamer alone (0.75, 1,5 or 3% w/w in chow) and the combination of tenapanor (0.15 mg/kg, bid) with each dose level of sevelamer (0.75, 1,5 or 3% w/w in chow). Animals were dosed in their home cages while pair-housed for the first five treatment days. On treatment day 6, all animals were housed individually in metabolic cages for the remainder of the study and continued to be provided ad libitum access to diet containing 0-3% sevelamer w/w and dosed twice daily with vehicle or tenapanor. Following two days acclimation to the metabolic cages, 24-hour food intake, water intake and urinary volume were measured and recorded for the final four treatment days. Urinary sodium and phosphorous concentration was measured by ion chromatography (IC). 24-hour urinary sodium and phosphorous excretion were calculated by multiplying ion concentration by 24-hour urine volume. Urinary ion excretion was also normalized to daily dietary ion intake to account for daily fluctuations in food intake.\nDosing solutions containing tenapanor (Ardelyx, Fremont Calif.) at a concentration of 0.03 mg/mL were made fresh weekly by adding the appropriate weight of tenapanor to 0.1% Tween 80 vehicle. The dose volume was 5 mL/kg for all groups.\nAnimals were dosed twice daily (bid) orally (po), immediately prior to lights out (7 AM) and during the middle of dark cycle (2 PM) with a standard gavage needle (38 mm, 20 G). Animals were removed from the holding or metabolic cages for dosing and then immediately returned to the cage of origin.\nUrine samples were analyzed for sodium and phosphorous content on an ion chromatography system (Thermo Fisher Scientific ICS-3000 or ICS-5000+) coupled with conductivity detectors."}, "rats": {"test_system": "rats", "experiment": "Urinary excretion of phosphate and calcium in rats", "assay_type": "in vivo, rat", "settings": "16 hours overnight urine", "method": "The activity of compound 002 was tested for its effects on phosphorus and calcium levels in the urine of rats. Rats were dosed according to the schedule in Table E7.\nThe rats were kept for 16 hours overnight (in the dark, the typical feeding period) in individual metabolic cages, and urine was collected the following morning for analysis of phosphate and calcium levels. The study design is shown WO2014169094."}, "[3]": {"experiment": "In vitro dissolution of CPD002 formulations", "assay_type": "physicochemical", "settings": "CPD002 formulations at high pH"}, "[4]": {"test_system": "dietary salt-induced, partial renal ablation model of CKD", "experiment": "Renal insufficiency with high salt feed in nephrectomized rats", "assay_type": "in vivo, rat", "method": "The effects of Cpd 002 were tested in a dietary salt-induced, partial renal ablation model of CKD."}, "[5]": {"settings": "haemodialysis patients; cited from earlier work"}, "[6]": {"settings": "Cpd 002 0.065 mg/g chow vs vehicle diet, listed as Cpd 002"}, "[7]": {"settings": "endpoint day 27, Cpd 002 0.065 mg/g chow vs vehicle diet"}, "[8]": {"settings": "endpoint, Cpd 002 0.065 mg/g chow vs vehicle diet"}, "[9]": {"settings": "early time points, Cpd 002 2 or 5 mg/kg/day drug-in-chow"}, "[10]": {"settings": "week three, at the highest dose"}, "[11]": {"settings": "tenapanor 0.15 mg/kg po bid alone, four day collection period, relative to control group 1"}},
  "note": "“Also recorded” adds a separate entry of the source.",
  "data": [
    {"smiles": "CN1Cc2c(Cl)cc(Cl)cc2[C@H](c2cccc(S(=O)(=O)NCCOCCOCCNC(=O)NCCCCNC(=O)NCCOCCOCCNS(=O)(=O)c3cccc([C@@H]4CN(C)Cc5c(Cl)cc(Cl)cc54)c3)c2)C1", "note": "[Tenapanor, tenapanor]", "values": [
      {"measurement": "hypertrophy of the heart (endpoint heart weight)", "setting": "[1]; [6]", "result": "lessened; also recorded: reduce"},
      {"measurement": "hypertrophy of the kidney remnant (endpoint kidney remnant weight)", "setting": "[1]; [6]", "result": "lessened; also recorded: reduce"},
      {"measurement": "plasma FGF-23", "setting": "[1]; [7]", "result": "reduced"},
      {"measurement": "plasma creatinine", "setting": "[1]; [7]", "result": "reduced"},
      {"measurement": "plasma phosphorus", "setting": "[1]; endpoint day 27, Cpd 002 0.065 mg/g chow vs vehicle diet, listed as Cpd 002", "result": "reduced; also recorded: anti-hyperphosphatemic effects"},
      {"measurement": "calcium in the stomach (soft tissue calcification)", "setting": "[1]; [8]", "result": "reduced"},
      {"measurement": "phosphorus in the stomach (soft tissue calcification)", "setting": "[1]; [8]", "result": "reduced"},
      {"measurement": "plasma aldosterone levels", "setting": "[1]; [8]", "result": "increase"},
      {"measurement": "vascular calcification as measured by aortic mineral content", "setting": "[1]; endpoint, Cpd 002 0.065 mg/g chow vs vehicle diet, listed as Cpd 002", "result": "reduce"},
      {"measurement": "moribundity", "setting": "[1]; treatment group vs vehicle", "result": "decreased"},
      {"measurement": "mortality outcome", "setting": "[1]; treatment group vs vehicle", "result": "trend toward improved mortality outcome"},
      {"measurement": "serum creatinine", "setting": "[2]; [9]", "result": "reduced"},
      {"measurement": "serum phosphorus", "setting": "[2]; [9]", "result": "reduced"},
      {"measurement": "heart remodeling (organ weight)", "setting": "[2]; week three", "result": "trend towards lesser"},
      {"measurement": "kidney remodeling (organ weight)", "setting": "[2]; week three", "result": "trend towards lesser"},
      {"measurement": "heart calcification", "setting": "[2]; [10]", "result": "trend towards reduced"},
      {"measurement": "kidney calcification", "setting": "[2]; [10]", "result": "trend towards reduced"},
      {"measurement": "urinary sodium excretion", "setting": "Sprague Dawley (SD) rats; single agent, compared to vehicle control", "result": "significantly decreased"},
      {"measurement": "24-hr urinary phosphorous excretion", "setting": "Sprague Dawley (SD) rats; single agent, compared to vehicle control, final four days of treatment", "result": "significantly decreased"},
      {"measurement": "% Reduction Urinary Phosphorous Excretion When Dosed Alone", "setting": "Sprague Dawley (SD) rats; [11]", "result": 33.2, "unit": "%"},
      {"measurement": "% Reduction Urinary Sodium Excretion When Dosed Alone", "setting": "Sprague Dawley (SD) rats; [11]", "result": 82.1, "unit": "%"},
      {"measurement": "urinary sodium excretion", "setting": "Sprague Dawley (SD) rats; tenapanor co-administered with all doses of sevelamer, compared to control", "result": "significantly reduced"},
      {"measurement": "urine phosphorus mass relative to the vehicle-only control", "setting": "rats; Cpd 002 0.1-3.0 mg/kg", "result": "reduced"},
      {"measurement": "urine phosphorus mass relative to 48 mg/kg Renvela", "setting": "rats; increasing dosages of Cpd 002", "result": "significantly reduced"},
      {"measurement": "in vitro dissolution profile", "setting": "[3]", "result": "slower and/or incomplete dissolution"},
      {"measurement": "albuminuria", "setting": "[4]", "result": "improved"},
      {"measurement": "blood pressure", "setting": "[4]", "result": "improved"},
      {"measurement": "fluid overload", "setting": "[4]", "result": "improved"},
      {"measurement": "heart hypertrophy", "setting": "[4]", "result": "improved"},
      {"measurement": "kidney hypertrophy", "setting": "[4]", "result": "improved"},
      {"measurement": "phosphorus urinary excretion", "setting": "[4]", "result": "significantly reduced"},
      {"measurement": "serum phosphate levels", "setting": "[5]", "result": "significantly lower"}
    ]}
  ]
}
